Assay results published in the supplement of paper PMC10307832.

Experiments:
Test in all cases: relative viability (nuclei count vs DMSO), 5 days (fraction); higher = more cells survive
[1] = compound: CC(C)(C)c1cc(NC(=O)Nc2ccc(-c3cn4c(n3)sc3cc(OCCN5CCOCC5)ccc34)cc2)no1 [Quizartinib] + CC(=O)c1c(C)c2cnc(Nc3ccc(N4CCNCC4)cn3)nc2n(C2CCCC2)c1=O [Palbociclib] (partner 0.5 µM)
Summary of the method: (§1)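 Values are medians from duplicate plates. Each reflects relative viability, defined as the nuclei count of treated wells over that of vehicle wells. Lung cancer cell lines in 1536-well plates were pin-tool dosed one day after seeding with one drug alone or with a fixed anchor-drug dose plus five library-drug doses (not always all listed) in √10 steps, then fixed, stained and imaged at 4× after 5 days.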

[2] = compound: CC(C)(C)c1cc(NC(=O)Nc2ccc(-c3cn4c(n3)sc3cc(OCCN5CCOCC5)ccc34)cc2)no1 [Quizartinib] + CC1(C)CCC(c2ccc(Cl)cc2)=C(CN2CCN(c3ccc(C(=O)NS(=O)(=O)c4ccc(N[C@H](CCN5CCOCC5)CSc5ccccc5)c(S(=O)(=O)C(F)(F)F)c4)cc3)CC2)C1 [Navitoclax] (partner 0.5 µM)
Summary of the method: as §1

[3] = compound: COCC[n+]1c2c(n(Cc3cnccn3)c1C)C(=O)c1ccccc1C2=O [YM155] + C[C@]1(O)C[C@@H](c2nc(-c3ccc4ccc(-c5ccccc5)nc4c3)c3c(N)nccn32)C1 [Linsitinib] (partner 1 µM)
Summary of the method: as §1

[4] = compound: COCC[n+]1c2c(n(Cc3cnccn3)c1C)C(=O)c1ccccc1C2=O [YM155] + C[C@@H](Oc1cc(-c2cnn(C3CCNCC3)c2)cnc1N)c1c(Cl)ccc(F)c1Cl [Crizotinib] (partner 1 µM)
Summary of the method: as §1

Cell Line	relative viability ([1]; first compound 0.001 µM)	relative viability ([1]; first compound 0.003162 µM)	relative viability ([1]; first compound 0.01 µM)	relative viability ([1]; first compound 0.03162 µM)	relative viability ([1]; first compound 0.1 µM)	relative viability ([2]; first compound 0.001 µM)	relative viability ([2]; first compound 0.003162 µM)	relative viability ([2]; first compound 0.01 µM)	relative viability ([2]; first compound 0.03162 µM)	relative viability ([2]; first compound 0.1 µM)	relative viability ([3]; first compound 0.002 µM)	relative viability ([3]; first compound 0.006325 µM)	relative viability ([3]; first compound 0.02 µM)	relative viability ([3]; first compound 0.06325 µM)	relative viability ([4]; first compound 0.002 µM)	relative viability ([4]; first compound 0.006325 µM)	relative viability ([4]; first compound 0.02 µM)	relative viability ([4]; first compound 0.06325 µM)
HARA	0.233	0.23	0.261	0.248	0.259	0.783	1.14	1.12	1.14	1.16	0.902	0.946	1.04	0.931	1.04	1.13	1.09	0.995
SK-LU-1	0.366	0.361	0.443	0.381	0.388	0.852	0.771	0.979	0.72	1.07	1.08	1.04	1.21	0.708	0.871	0.931	1.11	0.805
LK-2	0.734	0.621	0.853	0.599	0.69	0.827	0.803	1.09	0.77	0.861	0.425	0.764	0.491	0.796	0.226	0.236	0.214	0.241
UMC-11		0.333	0.339	0.321	0.317	0.271	0.278	0.364	0.346	0.307	0.993	1.05	1.02	1.03	0.525	0.602	0.684	0.505
NCI-H1355	0.379	0.378	0.415	0.36	0.363	0.868	0.921	0.912	1	1	0.821	0.832	0.948	0.875	0.988	1.11	1.03	1.01
NCI-H2228	0.695	0.936	0.773	1.03	0.76	0.859	0.702	0.75	1.08	0.98	0.84	0.628	0.917	0.825	0.527	0.445	0.368	0.563
NCI-H727	0.677	0.684	0.625	0.673	0.765	0.408		0.611	0.476	0.357	0.28	0.321	0.28	0.364	0.828	0.821	0.868	0.738
NCI-H460		0.136	0.188		0.125	1	1.09	1.24		1.13	0.778	0.936	0.735	0.517	1.01	0.803	0.936	0.84
NCI-H647	0.371	0.348	0.413	0.403	0.511	0.77	1.11	1.17	1.04	1.2	1.11	1.37	0.996	0.857	1.08	1.31	1.12	0.755
